Measurements as given in patent US7081524B2, “O2-substituted 1-[(2-carboxylato)pyrrolidin-1-yl]diazen-1-ium-1,2-diolates” (The United States of America as represented by the …, priority 1996, dated 2006).

Columns and labels:
[1] = system: glutathione S-transferase; assay: Glutathione S-transferase kinetics (UV absorbance at 380 nm); assay type: biochemical; conditions: 25° C., 0.1 M phosphate buffer pH 7.4, enzyme 0.7 μg/ml, glutathione 1.4 mM, diazeniumdiolate 50–100 μM
Description: The following examples further illustrate the present invention and, of course, should not be construed as in any way limiting its scope. With respect to the following examples, NO was obtained from Matheson Gas Products (Montgomeryville, Pa.), β- and α-glycosidases and porcine liver esterase were obtained from Sigma Chemical Co. (St, Louis, Mo.), polyurethane (Tecoflex) was obtained from Thermedics Inc. (Woburn, Mass.), and glucose and mannose were obtained from Aldrich Chemical Co. (Milwaukee, Wis.). Proton NMR spectra were recorded with a 300 MHz Varian Unity Plus or a Varian XL-200 NMR spectrometer. Spectra were obtained in deuterochloroform for covalent compounds and in D2O for salts. Chemical shifts are reported in parts per million (ppm) downfield from TMS. Low and high resolution mass spectral (MS) measurements were carried out on a VG-Micromass Model 7070 spectrometer. Unless otherwise indicated, MS data were collected in the electron impact mode with sample introduction via direct probe. Ultraviolet (UV) spectra were run as solutions in water or 0.01 M NaOH on an HP 8451A Diode Array spectrophotometer. Glutathione S-transferase kinetics were monitored by measuring the change in UV absorbance at 380 nm with a Beckman DU 640 spectrophotometer. Chemiluminescence measurements were done on a Thermal Energy Analyzer Model 502A instrument (Thermedics, Inc., Woburn, Mass.). […]

[2] = NO release in the presence or absence of glutathione, chemiluminescence; conditions: 37° C.
Experimental: This Example illustrates the regeneration of NO from O^2-(2,4-dinitrophenyl) 1-(N,N-diethylamino)diazen-1-ium-1,2-diolate in the presence, but not the absence, of glutathione.
A solution containing 1 mM glutathione (GSH) in 10 mM phosphate buffer was degassed by purging with argon for 10 min, whereupon a 3 ml aliquot was mixed with 3 μl of a dioxane solution that was 2 mM in O^2-(2,4-dinitrophenyl) 1-(N,N-diethylamino)diazen-1-ium-1,2-diolate. NO release was monitored by chemiluminescence while the mixture was held at 37° C. […] Total NO generation during the first 112 min was approximately 9 nmol. Assuming that […] of NO is generated per mol of O^2-(2,4-dinitrophenyl) 1-(N,N-diethylamino)diazen-1-ium-1,2-diolate, this 9 nmol corresponds to roughly 75% of the theoretical yield.
The nucleophilic glutathione reacted with the O^2-(2,4-dinitrophenyl) 1-(N,N-diethylamino)diazen-1-ium-1,2-diolate to produce NO according to the equation shown below.

[3] = Kinetics of reaction with sodium methoxide in methanol (HPLC); assay type: physicochemical; conditions: reaction with excess NaOMe in methanol; disappearance monitored by HPLC
Description: This Example illustrates the kinetics of reaction of O^2-(2,4-dinitrophenyl) 1-(N,N-diethylamino)diazen-1-ium-1,2-diolate with sodium methoxide in methanol. The kinetics of this reaction show the rate of conversion of O^2-(2,4-dinitrophenyl) 1-(N,N-diethylamino)diazen-1-ium-1,2-diolate to 1-(N,N-diethylamino)diazen-1-ium-1,2-diolate ion in alkaline or nucleophilic environments.
An excess of NaOMe was used in the reactions; aliquots were collected at intervals and quenched with 0.1 N HCl in methanol. […] This was determined by plotting log[O^2-(2,4-dinitrophenyl) 1-(N,N-diethylamino)diazen-1-ium-1,2-diolate] vs. time to find kobs′ at four different concentrations of NaOMe.

[4] = system: glutathione S-transferase (GST); conditions: FIG. 2
[5] = Cleavage of O2-glucopyranosyl diazeniumdiolate to DEA/NO anion and NO as a function of pH; assay type: physicochemical
porcine liver esterase = assay: Decay in the presence of porcine liver esterase; assay type: in vitro ADME; conditions: 25° C., phosphate buffer pH 7.4, porcine liver esterase suspension added
Experimental: This example describes the determination of the halflife of the Compound produced in Example 24 in the absence and presence of porcine liver esterase at 25° C. and pH 7.4.
A 0.009 M ethanolic stock solution of O2—[S-acetyl-(2-mercaptoethyl)]1-[(2-carboxylato)pyrrolidin-1-yl]diazen-1-ium-1,2-diolate [S-acetyl-(2-mercapto-ethyl)]ester was prepared. The decay of this compound was monitored at 25° C. as 1.5×10^−4 M solutions in a 4 ml quartz cuvette containing 3 ml of phosphate buffer (pH 7.4) and […] of stock solution. The decay of the 232 nm chromophore was monitored on the ultraviolet spectrophotometer. The halflife was estimated as 3.2 hr.
A second set of experiments was carried out using the above parameters to measure the decay after addition of 5 ml of porcine liver esterase suspension. The half-life for the esterase reaction was 8 min at 25° C.

[6] = 1 mM GSH in 10 mM phosphate buffer

For `O=C([O-])C1CCCN1[N+]([O-])=N[O-].[Na+].[Na+]` (stereo not shown) [Example 19, disodium 1-[(2-carboxylato)pyrrolidin-1-yl]diazen-1-ium-1,2-diolate], the melting point was 250 °C (dec.).

In the case of `CCN(CC)[N+]([O-])=NOc1ccc([N+](=O)[O-])cc1[N+](=O)[O-]` [Example 1, O^2-(2,4-dinitrophenyl) 1-(N,N-diethylamino)diazen-1-ium-1,2-diolate], the Km [1] is reported as 46.3 µM, the Vmax [1] is reported as 0.89 µM/min and the “time NO generation continued at readily detectable levels” value [2, 6] is reported as “approximately 100 minutes”. The “time of peak nitric oxide generation after reaction was initiated” value [2, 6] was “approximately 15 minutes”, the “total NO generation during the first 112 min” value ([2]; 1 mM GSH in 10 mM phosphate buffer, 3 μl of 2 mM solution in 3 ml) was “approximately 9 nmol” and the “NO generated as share of the theoretical yield” value ([2]; 1 mM GSH, first 112 min) was “roughly 75%”. For the same compound, the “NO generation with exclusion of the GSH” value ([2]; 10 mM phosphate buffer, no GSH) was “no NO generation was observed” and the second-order rate constant [3] was 7.87 M⁻¹ min⁻¹.

In the case of `O=[N+]([O-])c1ccc(ON=[N+]([O-])N2CCCC2)c([N+](=O)[O-])c1` [Example 8, O^2-(2,4-dinitrophenyl) 1-(pyrrolidin-1-yl)diazen-1-ium-1,2-diolate], the “relative NO release rate versus time with GST” value [4] is reported as “catalysis of NO release”.

In the case of `CCN(CC)[N+]([O-])=NOC1O[C@H](CO)[C@@H](O)[C@H](O)[C@H]1O` (stereo partly shown) [Example 31, O^2-glucopyranosyl 1-(N,N-diethylamino)diazen-1-ium-1,2-diolate], the “cleavage to DEA/NO anion, then to NO” value ([5]; pH 3) is reported as “only extremely slowly” and the “cleavage to DEA/NO anion, then to NO” value ([5]; pH 13) is reported as “extremely rapidly”.

For `CC(=O)SCCON=[N+]([O-])N1CCCC1C(=O)OCCSC(C)=O` (stereo not shown) [Example 24, O^2—[S-acetyl-(2-mercaptoethyl)]1-[(2-carboxylato)pyrrolidin-1-yl]diazen-1-ium-1,2-diolate [S-acetyl-(2-mercaptoethyl)]ester], the “half-life for the esterase reaction” value (porcine liver esterase) was 8 min.
